Experiments:
Type in all cases: in vivo
[1] = system: Japanese bulrush (Scirpus juncoides Roxb.); test: Test Example 1: herbicidal effect by soil application to paddy field; conditions: paddy field soil application; active ingredient 1,000 g per 1 hectare; wettable powder added dropwise to water surface the day after sowing; examined on the 21st day after application
How it was run: (§1)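 Under greenhouse conditions, seeds sown on puddled paddy soil in 100 cm2 pots under 3 cm of standing water received the test compound; injury was assessed with a standard scoring scheme three weeks (day 21) after treatment.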

[2] = system: early watergrass (Echinochloa oryzicola Vasing); test: as above; conditions: paddy field soil application; active ingredient 1,000 g per 1 hectare; wettable powder added dropwise to water surface the day after sowing; examined on the 21st day after application
How it was run: as §1

[3] = system: heartshape false pickerelweed (Monochoria vaginalis (Burm.f.) C.Presl); test: as above; conditions: paddy field soil application; active ingredient 1,000 g per 1 hectare; wettable powder added dropwise to water surface the day after sowing; examined on the 21st day after application
How it was run: as §1

[4] = system: barnyardgrass (Echinochloa crus-galli (L.) P. Beauv. var. crus-galli); test: Test Example 2: herbicidal effect by soil application to upland field; conditions: soil surface spray, upland field soil, 1,000 g active ingredient per hectare, 21st day after application
How it was run: (§2)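 Using a small sprayer, we treat the soil surface of pots just after sowing and covering seeds. The aqueous wettable powder supplies 1,000 g a.i./ha in 1,000 L water/ha; after greenhouse growth, injury is scored on day 21 using a standard rating.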

[5] = system: green foxtail (Setaria viridis (L.) P. Beauv.); test: as above; conditions: soil surface spray, upland field soil, 1,000 g active ingredient per hectare, 21st day after application
How it was run: as §2

[6] = system: slender amaranth (Amaranthus viridis L.); test: as above; conditions: soil surface spray, upland field soil, 1,000 g active ingredient per hectare, 21st day after application
How it was run: as §2

[7] = system: velvetleaf (Abutilon theophrasti medicus); test: as above; conditions: soil surface spray, upland field soil, 1,000 g active ingredient per hectare, 21st day after application
How it was run: as §2

[8] = system: barnyardgrass (Echinochloa crus-galli (L.) P. Beauv. var. crus-galli); test: Test Example 3: herbicidal effect by application to upland field (foliage treatment); conditions: foliage treatment, 1,000 g active ingredient per 1 hectare, 14th day after application, greenhouse
How it was run: (§3)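 Foliar spray on two-week-old greenhouse weeds in field soil: wettable powder formulation diluted in water, applied at 1,000 L/ha to give 1,000 g a.i./ha. Damage rated by a fixed scoring standard on day 14 after application.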

[9] = system: green foxtail (Setaria viridis (L.) P. Beauv.); test: as above; conditions: foliage treatment, 1,000 g active ingredient per 1 hectare, 14th day after application, greenhouse
How it was run: as §3

[10] = system: slender amaranth (Amaranthus viridis L.); test: as above; conditions: foliage treatment, 1,000 g active ingredient per 1 hectare, 14th day after application, greenhouse
How it was run: as §3

[11] = system: velvetleaf (Abutilon theophrasti medicus); test: as above; conditions: foliage treatment, 1,000 g active ingredient per 1 hectare, 14th day after application, greenhouse
How it was run: as §3

Row | Structure (SMILES) | herbicidal effect, Scirpus juncoides Roxb. [1] | herbicidal effect, Echinochloa oryzicola Vasing [2] | herbicidal effect, Monochoria vaginalis (Burm. f.) C. Presl [3] | herbicidal effect (index), Barnyardgrass [4] | herbicidal effect (index), Green Foxtail [5] | herbicidal effect (index), Slender Amaranth [6] | herbicidal effect (index), Velvetleaf [7] | herbicidal effect, Barnyardgrass [8] | herbicidal effect, Green Foxtail [9] | herbicidal effect, Slender Amaranth [10] | herbicidal effect, Velvetleaf [11]
1 | CCCS(=O)(=O)Oc1c(C(=O)c2ccc(C(F)(F)F)n(CCOCCOC)c2=O)cnn1CC [IV-204] | 5 (90% or more of herbicidal effect and crop phytotoxicity) | 5 (90% or more of herbicidal effect and crop phytotoxicity) | 5 (90% or more of herbicidal effect and crop phytotoxicity) | 5 (90% or more of herbicidal effect and crop phytotoxicity) | 5 (90% or more of herbicidal effect and crop phytotoxicity) | 5 (90% or more of herbicidal effect and crop phytotoxicity) | 5 (90% or more of herbicidal effect and crop phytotoxicity) | 5 (90% or more of herbicidal effect and crop phytotoxicity) | 5 (90% or more of herbicidal effect and crop phytotoxicity) | 5 (90% or more of herbicidal effect and crop phytotoxicity) | 5 (90% or more of herbicidal effect and crop phytotoxicity)
2 | CCn1ncc(C(=O)c2ccc(C(F)(F)F)n(CC3CCCO3)c2=O)c1O (centres unmarked) [IV-205] | 5 (90% or more of herbicidal effect and crop phytotoxicity) | 5 (90% or more of herbicidal effect and crop phytotoxicity) | 5 (90% or more of herbicidal effect and crop phytotoxicity) | 5 (90% or more of herbicidal effect and crop phytotoxicity) | 5 (90% or more of herbicidal effect and crop phytotoxicity) | 5 (90% or more of herbicidal effect and crop phytotoxicity) | 5 (90% or more of herbicidal effect and crop phytotoxicity) | 5 (90% or more of herbicidal effect and crop phytotoxicity) | 5 (90% or more of herbicidal effect and crop phytotoxicity) | 5 (90% or more of herbicidal effect and crop phytotoxicity) | 5 (90% or more of herbicidal effect and crop phytotoxicity)
3 | CC(C)n1ncc(C(=O)c2ccc(C(F)(F)F)n(C)c2=O)c1O [IV-219] | 5 (90% or more of herbicidal effect and crop phytotoxicity) | 5 (90% or more of herbicidal effect and crop phytotoxicity) | 5 (90% or more of herbicidal effect and crop phytotoxicity) | 5 (90% or more of herbicidal effect and crop phytotoxicity) | 3 (50 to less than 70% of herbicidal effect and crop phytotoxicity) | 5 (90% or more of herbicidal effect and crop phytotoxicity) | 5 (90% or more of herbicidal effect and crop phytotoxicity) | 5 (90% or more of herbicidal effect and crop phytotoxicity) | 3 (50 to less than 70% of herbicidal effect and crop phytotoxicity) | 5 (90% or more of herbicidal effect and crop phytotoxicity) | 5 (90% or more of herbicidal effect and crop phytotoxicity)
4 | Cn1ncc(C(=O)c2ccc(Cl)n(C)c2=O)c1O [IV-243] | 5 (90% or more of herbicidal effect and crop phytotoxicity) | 5 (90% or more of herbicidal effect and crop phytotoxicity) | 5 (90% or more of herbicidal effect and crop phytotoxicity) | 5 (90% or more of herbicidal effect and crop phytotoxicity) | 3 (50 to less than 70% of herbicidal effect and crop phytotoxicity) | 5 (90% or more of herbicidal effect and crop phytotoxicity) | 5 (90% or more of herbicidal effect and crop phytotoxicity) | 5 (90% or more of herbicidal effect and crop phytotoxicity) | 4 (70 to less than 90% of herbicidal effect and crop phytotoxicity) | 5 (90% or more of herbicidal effect and crop phytotoxicity) | 5 (90% or more of herbicidal effect and crop phytotoxicity)

Reference: patent US8076487B2, “Pyridone derivative and herbicide” (Kumiai Chemical Industry Co., Ltd., priority 2006, dated 2011)
